According to the supplement of paper PMC11208160:

Assay: recombinant barcode read abundance after kanamycin selection (control-corrected) (log10(CPM+1)); higher = more efficient recombination; sequences stand for … in AGTGCAGAGAAAATCGGCCAGTTTTCTCTGCCTGCAGTCCGCATGCCGT…AGATTTATGCAGCGGACTGCCTTTCTCCCAAAGTGATAAACCGGACAGTATCATGGACCGGTTTTCCCGGTAATCCGTATTTGCAAGGTTGGTTTCACT; site = the 11-nt target
Method in brief: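 IS621 bridge RNA target-binding loops were paired with targets in a pooled library tested in E. coli. After co-electroporation with a donor plasmid, cells were plated in two replicates on chloramphenicol/ampicillin LB agar (control) and on chloramphenicol/ampicillin/kanamycin carrying 0.1 mM IPTG. Barcodes at recombinant junctions were counted as counts per million, averaged and control-corrected to give recombination efficiency. Values are log10(CPM+1).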
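Note: IS621 recombinase and bridge RNA in Escherichia coli cells.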

Sequence	recombinant barcode read abundance (log10)
GTACGACCTTGGGTTCTAACCTGTTGCAC (site AACAAGACTAG)	0.189
GTACGACCTTGGGTTCTAACCTGTTGCAC (site GTACGACCTGT)	1.91
GTACGTACTTGGGTTCTAACCTGTTGCCT (site ATACGTACTAG)	0.0704
GTACGTACTTGGGTTCTAACCTGTTGCCT (site CTACGTACTAG)	0.283
GTACGTACTTGGGTTCTAACCTGTTGCCT (site GTACGTACTAG)	0.586
GTACGTACTTGGGTTCTAACCTGTTGCCT (site TTACGTACTAG)	0.777
GTACGTCCTTGGGTTCTAACCTGTTGCGT (site GTACGTCCTAA)	0.0527
GTACGTCCTTGGGTTCTAACCTGTTGCGT (site GTACGTCCTAC)	2.36
GTACGTCCTTGGGTTCTAACCTGTTGCGT (site GTACGTCCTAG)	0.0549
GTACGTCCTTGGGTTCTAACCTGTTGCGT (site GTACGTCCTAT)	0.764
GTAGACCCTTGGGTTCTAACCTGTTGCCG (site GTAGACCCTCG)	2.32
GTAGACCCTTGGGTTCTAACCTGTTGCCG (site GTTGACCCTAG)	0.476
GTATCCGCTTGGGTTCTAACCTGTTGCCA (site CGGCTGCCTCC)	0.0649
GTATCCGCTTGGGTTCTAACCTGTTGCCA (site GTATCCGCTTG)	1.55
GTATGAGCTTGGGTTCTAACCTGTTGCCA (site GTATGAGCTTG)	0.906
GTATGAGCTTGGGTTCTAACCTGTTGCCA (site TTATAAGCTTG)	0.0331
GTATGAGCTTGGGTTCTAACCTGTTGCGG (site GTATGAGCTCC)	2.06
GTATGAGCTTGGGTTCTAACCTGTTGCGG (site GTATGTGCTCC)	0.255
GTATGCTCTTGGGTTCTAACCTGTTGCGT (site GTATCCTCTAT)	0.11
GTATGCTCTTGGGTTCTAACCTGTTGCGT (site GTATGCTCTAC)	1.17
GTCAACCCTTGGGTTCTAACCTGTTGCGG (site GTAAACCCTCC)	0.886
GTCAACCCTTGGGTTCTAACCTGTTGCGG (site GTCAACCCTCC)	2.33

Sequence	recombinant barcode read abundance (log10)
GTCAAGACTTGGGTTCTAACCTGTTGCCG (site GTCAAGACTCG)	1.94
GTCAAGACTTGGGTTCTAACCTGTTGCCG (site GTCAAGACTTG)	0.462
GTCAAGCCTTGGGTTCTAACCTGTTGCTA (site GCCAAACCTTA)	0.345
GTCAAGCCTTGGGTTCTAACCTGTTGCTA (site GTCAAGCCTTA)	0.705
GTCACGCCTTGGGTTCTAACCTGTTGCAT (site GACACACCTAT)	0.0978
GTCACGCCTTGGGTTCTAACCTGTTGCAT (site GTCACGCCTAT)	0.588
GTCACTACTTGGGTTCTAACCTGTTGCCG (site GTCACTACTCG)	0.74
GTCACTACTTGGGTTCTAACCTGTTGCCG (site GTCCCTACTCG)	0.0387
GTCACTACTTGGGTTCTAACCTGTTGCCG (site GTCGCTACTCG)	0.0416
GTCACTACTTGGGTTCTAACCTGTTGCCG (site GTCTCTACTCG)	0.127
GTCAGCCCTTGGGTTCTAACCTGTTGCTG (site GACAGCCCTCA)	0.379
GTCAGCCCTTGGGTTCTAACCTGTTGCTG (site GTCAGCCCTCA)	0.255
GTCATGTCTTGGGTTCTAACCTGTTGCCT (site GCCATGTCTAG)	0.781
GTCATGTCTTGGGTTCTAACCTGTTGCCT (site GTCATGTCTAG)	1.45
GTCATGTCTTGGGTTCTAACCTGTTGCTC (site AGACGACCTCC)	0.0394
GTCATGTCTTGGGTTCTAACCTGTTGCTC (site GTCATGTCTGA)	1.23
GTCCAGACTTGGGTTCTAACCTGTTGCCT (site GTACAGACTAG)	0.92
GTCCAGACTTGGGTTCTAACCTGTTGCCT (site GTCCAGACTAG)	1.97
GTCCAGACTTGGGTTCTAACCTGTTGCCT (site GTGCAGACTAG)	0.508
GTCCAGACTTGGGTTCTAACCTGTTGCCT (site GTTCAGACTAG)	0.228
GTCCAGCCTTGGGTTCTAACCTGTTGCAC (site CAAAGAGCTCA)	0.291
GTCCAGCCTTGGGTTCTAACCTGTTGCAC (site GTCCAGCCTGT)	2.18

Sequence	recombinant barcode read abundance (log10)
GTCCCCTCTTGGGTTCTAACCTGTTGCCT (site GTCACCTCTAG)	0.0601
GTCCCCTCTTGGGTTCTAACCTGTTGCCT (site GTCCCCTCTAG)	1.74
GTCCCCTCTTGGGTTCTAACCTGTTGCCT (site GTCGCCTCTAG)	0.109
GTCCCCTCTTGGGTTCTAACCTGTTGCCT (site GTCTCCTCTAG)	0.0122
GTCCCTACTTGGGTTCTAACCTGTTGCCG (site GTCACTACTCG)	0.12
GTCCCTACTTGGGTTCTAACCTGTTGCCG (site GTCCCTACTCG)	1.11
GTCCCTACTTGGGTTCTAACCTGTTGCCG (site GTCGCTACTCG)	0
GTCCCTACTTGGGTTCTAACCTGTTGCCG (site GTCTCTACTCG)	0.0614
GTCCGCTCTTGGGTTCTAACCTGTTGCCT (site ATCCGCTCTAG)	1.4
GTCCGCTCTTGGGTTCTAACCTGTTGCCT (site CTCCGCTCTAG)	0.823
GTCCGCTCTTGGGTTCTAACCTGTTGCCT (site GTCCGCTCTAG)	2.37
GTCCGCTCTTGGGTTCTAACCTGTTGCCT (site TTCCGCTCTAG)	0.383
GTCCGGTCTTGGGTTCTAACCTGTTGCTT (site GTCCGGTCTAA)	1.07
GTCCGGTCTTGGGTTCTAACCTGTTGCTT (site GTCGGGTCTAG)	0.097
GTCCGTCCTTGGGTTCTAACCTGTTGCTT (site GTCCGTCCTAA)	0.907
GTCCGTCCTTGGGTTCTAACCTGTTGCTT (site GTCCGTCCTAC)	0.0973
GTCCGTCCTTGGGTTCTAACCTGTTGCTT (site GTCCGTCCTAG)	0.249
GTCCGTCCTTGGGTTCTAACCTGTTGCTT (site GTCCGTCCTAT)	0.416
GTCCTACCTTGGGTTCTAACCTGTTGCTA (site AGAAATACTCG)	0.442
GTCCTACCTTGGGTTCTAACCTGTTGCTA (site GTCCTACCTTA)	1.63
GTCCTATCTTGGGTTCTAACCTGTTGCAC (site CGAGGCCCTAA)	0.0371
GTCCTATCTTGGGTTCTAACCTGTTGCAC (site GTCCTATCTGT)	1.98

Sequence	recombinant barcode read abundance (log10)
GTCGATCCTTGGGTTCTAACCTGTTGCCT (site GACGATCCTAG)	0.69
GTCGATCCTTGGGTTCTAACCTGTTGCCT (site GCCGATCCTAG)	0.639
GTCGATCCTTGGGTTCTAACCTGTTGCCT (site GGCGATCCTAG)	0.221
GTCGATCCTTGGGTTCTAACCTGTTGCCT (site GTCGATCCTAG)	1.68
GTCGCCTCTTGGGTTCTAACCTGTTGCCT (site GTCACCTCTAG)	0.157
GTCGCCTCTTGGGTTCTAACCTGTTGCCT (site GTCCCCTCTAG)	0.491
GTCGCCTCTTGGGTTCTAACCTGTTGCCT (site GTCGCCTCTAG)	0.297
GTCGCCTCTTGGGTTCTAACCTGTTGCCT (site GTCTCCTCTAG)	0.0886
GTCGGAGCTTGGGTTCTAACCTGTTGCAG (site GTCGGAGCTCA)	0.681
GTCGGAGCTTGGGTTCTAACCTGTTGCAG (site GTCGGAGCTCC)	0.165
GTCGGAGCTTGGGTTCTAACCTGTTGCAG (site GTCGGAGCTCG)	0.104
GTCGGAGCTTGGGTTCTAACCTGTTGCAG (site GTCGGAGCTCT)	1.89
GTCGGGTCTTGGGTTCTAACCTGTTGCCT (site GTCCGGTCTAA)	0.054
GTCGGGTCTTGGGTTCTAACCTGTTGCCT (site GTCGGGTCTAG)	1.47
GTCGGTCCTTGGGTTCTAACCTGTTGCCG (site AGTTTAACTGT)	0.0178
GTCGGTCCTTGGGTTCTAACCTGTTGCCG (site GTCGGTCCTCG)	1.04
GTCGTCCCTTGGGTTCTAACCTGTTGCCA (site GCCGTCCCTTA)	0.071
GTCGTCCCTTGGGTTCTAACCTGTTGCCA (site GTCGTCCCTTG)	0.231
GTCTATGCTTGGGTTCTAACCTGTTGCCT (site GACTATGCTAG)	0.106
GTCTATGCTTGGGTTCTAACCTGTTGCCT (site GCCTATGCTAG)	0.213
